The values that follow come from patent US20120202856A1, “SUBSTITUTED BENZIMDAZOLE DERIVATIVES USEFUL AS TRPM8 RECEPTOR MODULATORS” (priority 2011, published 2012).

Molecules are shown by their SMILES. Values joined by “and” are separate entries in the source; they are usually repeats but may differ in a detail not shown here. Equal values may be shown once. Where a name gives a salt, the structure may show the parent alone.

One test concerns humans. Particulars: 5-10 mg ingested orally; cited from earlier work.
The next test deals with rats. Conditions: cited from earlier work.
The next test concerns the target T1, canine TRPM8 (Canis lupus familiaris, UniProt Q1A7N1).
T1 construct: expressed in transfected cells
As to the kind of experiment: In Vitro Canine TRPM8 Functional Assay (intracellular Ca2+ fluorescence, icilin activation, HEK293 cells). The test is classed as cell-based. Conditions: for IC50: HEK293 cells expressing canine TRPM8, icilin activation, individually measured values (batches/salt forms), read-out: IC50 (nM), in vitro TRP M8 Activity. In a few lines:
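Inhibition of icilin-evoked calcium influx measured by Calcium 3 fluorescence (FLIPR or FDSS) in canine TRPM8 HEK293 cells. After basal subtraction, data expressed as percent of maximum; quadruplicate means fitted by sigmoidal dose–response to give IC50.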

The subject of test [1] is CCI-induced cold hypersensitivity. The experiment in a line: Chronic Constriction Injury (CCI)-Induced Model of Neuropathic Pain, Acetone-Induced Hypersensitivity. Particulars: rat, p.o., acetone-induced withdrawals, 2 h after administration. It counts as in vivo, Sprague-Dawley rats. The text has this:
Male Sprague-Dawley rats (225-450 g; n=5-8/treatment) were used to evaluate the ability of test compounds to reverse CCl-induced cold hypersensitivity. Four loose ligatures of 4-0 chromic gut were surgically placed around the left sciatic nerve under inhalation anesthesia as described by Bennett et al. (BENNETT, G. J., et al., “A peripheral mononeuropathy in rat that produces disorder of pain sensation like those seen in man”, Pain, 1988, pp 87-107, Vol. 33(1)). Fourteen to 35 days following CCl surgery, subjects were placed in elevated observation chambers containing wire mesh floors, and five applications of acetone (0.05 mL/application separated by approximately 5 min) were spritzed onto the plantar surface of the paw using a multidose syringe. An abrupt withdrawal or lifting of the paw was considered a positive response. The number of positive responses was recorded for each rat over the five trials. […] The number of withdrawals was re-determined at 2 hr after compound administration. […] Results are presented below as a percent inhibition of […], which was calculated for each subject and then averaged by treatment as follows: […]

Test [2] has as its system icilin-induced “wet-dog” shakes (WDS). As to the kind of experiment: Inhibition of Icilin-Induced “Wet-Dog” Shakes in Rats. It counts as in vivo, Sprague Dawley rats. Conditions: po, rat, 1.5 hrs; for inhibition in vivo at 3 mg/kg / inhibition in vivo at 10 mg/kg: p.o., read-out: Icilin % Inhibition @1.5 hrs. Here is the method: The test compound was administered in 10% hydroxypropyl-β-cyclodextrin (HP-13-CD), p.o., 60 min before icilin.
% Inhibition=[1−(test compound WDS count/vehicle WDS count)]×100.

T1 sequence (Q1A7N1 1-1104): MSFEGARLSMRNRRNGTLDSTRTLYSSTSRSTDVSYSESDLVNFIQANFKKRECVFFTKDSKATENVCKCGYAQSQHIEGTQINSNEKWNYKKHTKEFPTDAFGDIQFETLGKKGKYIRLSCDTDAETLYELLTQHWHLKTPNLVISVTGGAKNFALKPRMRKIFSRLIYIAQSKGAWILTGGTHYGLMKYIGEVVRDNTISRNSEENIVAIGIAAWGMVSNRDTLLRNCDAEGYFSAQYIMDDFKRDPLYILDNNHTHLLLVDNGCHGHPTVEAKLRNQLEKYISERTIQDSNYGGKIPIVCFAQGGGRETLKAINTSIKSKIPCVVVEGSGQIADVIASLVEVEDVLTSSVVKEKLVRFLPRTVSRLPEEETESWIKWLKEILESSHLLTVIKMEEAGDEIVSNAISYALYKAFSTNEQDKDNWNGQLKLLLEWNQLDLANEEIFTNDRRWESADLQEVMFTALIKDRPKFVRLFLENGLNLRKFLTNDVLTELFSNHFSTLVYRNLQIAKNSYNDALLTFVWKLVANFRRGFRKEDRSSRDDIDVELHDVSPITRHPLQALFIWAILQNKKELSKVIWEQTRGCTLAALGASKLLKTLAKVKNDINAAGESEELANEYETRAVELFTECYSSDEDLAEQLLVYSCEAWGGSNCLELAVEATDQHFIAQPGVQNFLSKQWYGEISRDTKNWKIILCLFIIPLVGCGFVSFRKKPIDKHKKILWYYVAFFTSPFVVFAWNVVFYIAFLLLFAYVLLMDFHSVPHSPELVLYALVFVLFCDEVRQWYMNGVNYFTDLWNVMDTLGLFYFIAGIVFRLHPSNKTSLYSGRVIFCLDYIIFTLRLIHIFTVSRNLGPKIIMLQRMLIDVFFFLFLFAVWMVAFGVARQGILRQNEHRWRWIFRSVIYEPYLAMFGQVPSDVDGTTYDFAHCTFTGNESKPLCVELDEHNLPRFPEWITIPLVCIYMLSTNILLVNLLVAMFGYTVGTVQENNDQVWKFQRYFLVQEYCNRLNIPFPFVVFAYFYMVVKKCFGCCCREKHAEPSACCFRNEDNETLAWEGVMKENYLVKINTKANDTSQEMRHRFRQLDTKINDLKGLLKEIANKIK

Regarding `O=C1NC(c2cccc([N+](=O)[O-])c2)=CCN1c1ccccc1O` [Icilin], the “coldness in the mouth, pharynx and chest lasting” value with humans was 30 to 60 min. Moreover, the “behaviour caused in initial in vivo testing” value in the test with rats is reported as ““wet-dog” shakes”.

For the compound `Cl.Cn1nc(C(C)(C)C)c(Cl)c1-c1nc2cc(-c3ccccc3F)ccc2[nH]1` [Compound 90, 2-(5-tert-Butyl-4-chloro-2-methyl-2H-pyrazol-3-yl)-5-(2-fluoro-phenyl)-1H-benzimidazole hydrochloride], the IC50 (in general, the concentration that inhibits the measured activity by half) at canine TRPM8 was 7.4 nM and 5 nM and 9.3 nM. In test [1], the “CCI % Inhibition @ 2 h” value is 22.5%. Besides, the inhibition in vivo at 5.6 mg/kg in test [2] (dose 5.6 mg/kg) came out at 52.7%.

As to `Cn1nc(C(C)(C)C)c(C#N)c1-c1nc2cc(-c3ccccc3Cl)cc(Cl)c2[nH]1.[Na]` [Compound 168, 3-tert-Butyl-5-[7-chloro-5-(2-chloro-phenyl)-1H-benzimidazol-2-yl]-1-methyl-1H-pyrazole-4-carbonitrile sodium salt], on canine TRPM8 (0.2 μM test compound, individually measured values, sodium salt, 0.2 µM), the “% Inh (%) @0.2 μM, in vitro TRP M8 Activity” value was 101% and 100% (2×). On canine TRPM8 (HEK293, 0.2 μM test compound, individually measured values, read-out: % Inh (%) @0.2 μM, in vitro TRP M8 Activity), the inhibition at 0.2 µM was found to be 99%. Also, the IC50 at canine TRPM8 was 2.3 nM and 7 nM and 4.3 nM and 4.7 nM and 3.2 nM. In addition, the “CCI % Inhibition @ 2 h” value in test [1] is 74.3%. Also, the inhibition in vivo at 3 mg/kg in test [2] was 86%.

For the compound `Cl.Cn1nc(C(C)(C)C)c(Cl)c1-c1nc2cc(-c3c(F)cccc3F)ccc2[nH]1` [Compound 85, 2-(5-tert-Butyl-4-chloro-2-methyl-2H-pyrazol-3-yl)-5-(2,6-difluoro-phenyl)-1H-benzimidazole hydrochloride], at canine TRPM8, the IC50 was 3.7 nM and 4.6 nM and 3.8 nM. Moreover, the “CCI % Inhibition @ 2 h” value in test [1] is listed as 34.3%. The inhibition in vivo at 10 mg/kg in test [2] was 96.4%.

As for `CC(C)(C)c1cc(-c2nc3cc(-c4ccccc4OC(F)(F)F)ccc3[nH]2)on1.[Na]` [Compound 10, 2-(3-tert-Butylisoxazol-5-yl)-5-(2-trifluoromethoxyphenyl)-1H-benzimidazole sodium salt], the half-inhibitory concentration (IC50) at canine TRPM8 is 12 nM and 15 nM and 10 nM. Moreover, the “CCI % Inhibition @ 2 h” value in test [1] was determined as 57.1%. In test [2] (dose 30 mg/kg), this compound registered an inhibition in vivo at 30 mg/kg of 97.3%.

As for `Cn1nc(C(C)(C)C)c(Cl)c1-c1nc2cc(-c3c(F)cccc3C(F)(F)F)ccc2[nH]1` [Compound 86, 2-(5-tert-Butyl-4-chloro-2-methyl-2H-pyrazol-3-yl)-5-(2-fluoro-6-trifluoromethyl-phenyl)-1H-benzimidazole hydrochloride], at canine TRPM8, the IC50 was 3.1 nM and 7.7 nM. Besides, in test [2], the inhibition in vivo at 10 mg/kg came to 98.7%.

In the case of `Cc1c(C(C)(C)C)nn(C)c1-c1nc2cc(-c3ccccc3C(F)(F)F)cc(C(F)(F)F)c2[nH]1` [Compound 120, 2-(5-tert-Butyl-2,4-dimethyl-2H-pyrazol-3-yl)-7-trifluoromethyl-5-(2-trifluoromethyl-phenyl)-1H-benzimidazole hydrochloride], the 50% inhibitory concentration (IC50) on canine TRPM8 was 2.1 nM. For the same compound, in test [2], the inhibition in vivo at 3 mg/kg was found to be 44.8%.

In the case of `Cn1nc(C(C)(C)C)c(Cl)c1-c1nc2cc(-c3ccccc3Cl)ccc2[nH]1` [Compound 89, 2-(5-tert-Butyl-4-chloro-2-methyl-2H-pyrazol-3-yl)-5-(2-chloro-phenyl)-1H-benzimidazole hydrochloride], the concentration for half-maximal inhibition (IC50) at canine TRPM8 is 3.6 nM and 5.2 nM and 2.4 nM. The inhibition in vivo at 10 mg/kg in test [2] stood at 91.5%.
